{"source": "patent US20210085640A1", "about": "“ACYLATED CATECHIN POLYPHENOLS AND METHODS OF THEIR USE FOR THE TREATMENT OF CANCER” (Flagship Pioneering Innovations V, Inc., priority 2018, published 2021)", "format_in_all_cases": "cell-based", "key": {"[1]": {"system": "HCT 116 colorectal cancer cells", "assay": "Cancer cell survival (CellTiter-Glo), HCT 116", "details": "Homo sapiens, HCT 116 cells, 72 h", "summary_of_the_method": "(§1)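 Luminescent ATP read-out (CellTiter-Glo) after 72 h compound exposure at 37 C/5% CO2. Survival % is calculated against untreated cells minus medium background, and IC50 is taken from nine concentrations run in triplicate. Plating density was 4×10^3 cells/well with overnight attachment beforehand.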"}, "[2]": {"system": "Daudi lymphoma cancer cells", "assay": "Cancer cell survival (CellTiter-Glo), Daudi", "details": "Homo sapiens, 72 h", "summary_of_the_method": "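Daudi cells (4×10^3/well) were exposed for 72 h at 37 °C to nine concentrations of compound, added as 10× solutions spanning 1 μM–10 mM (fatty acids) or 100 nM–1 mM (others). CellTiter-Glo luminescence gave % survival versus untreated, medium-blank corrected; IC50 derived.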"}, "[3]": {"system": "AGS stomach cancer cells", "assay": "Cancer cell survival (CellTiter-Glo), AGS", "details": "72 h", "summary_of_the_method": "as §1"}, "[4]": {"system": "PC-3 prostate cancer cells", "assay": "Cancer cell survival (CellTiter-Glo), PC-3", "details": "Homo sapiens, PC-3 cells, 72 h, read-out: Cell survival at given concentration", "summary_of_the_method": "as §1"}, "[5]": {"system": "MCF7 breast cancer cells", "assay": "Cancer cell survival (CellTiter-Glo), MCF7", "details": "Homo sapiens, 72 h", "summary_of_the_method": "as §1"}, "[6]": {"system": "A-431 skin cancer cells", "assay": "Cancer cell survival (CellTiter-Glo), A-431", "details": "Homo sapiens, A-431 cells, 72 h", "summary_of_the_method": "as §1"}, "[7]": {"system": "T24 bladder cancer cells", "assay": "Cancer cell survival (CellTiter-Glo), T24", "details": "Homo sapiens", "summary_of_the_method": "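Viability by CellTiter-Glo after 72 h compound treatment of T24 bladder cancer cells (4×10^3/well, plated the night before), nine concentration levels in triplicate. Percent survival normalised to untreated cells minus medium background, from which IC50 was determined.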"}, "[8]": {"system": "A549 lung cancer cells", "assay": "Cancer cell survival (CellTiter-Glo), A549", "details": "Homo sapiens, 72 h", "summary_of_the_method": "as §1"}, "[9]": {"details": "101 nM, read-out: Cell survival at given concentration"}, "[10]": {"details": "318 nM, read-out: Cell survival at given concentration"}, "[11]": {"details": "1 μM, read-out: Cell survival at given concentration"}, "[12]": {"details": "3 μM, read-out: Cell survival at given concentration"}, "[13]": {"details": "10 μM, read-out: Cell survival at given concentration"}, "[14]": {"details": "32 μM, read-out: Cell survival at given concentration"}, "[15]": {"details": "100 μM, read-out: Cell survival at given concentration"}, "[16]": {"details": "316 μM, read-out: Cell survival at given concentration"}, "[17]": {"details": "1000 μM, read-out: Cell survival at given concentration"}}}
{"compound": "O=c1c(O)c(-c2cc(O)c(O)c(O)c2)oc2cc(O)cc(O)c12", "note": "[myricetin]", "values": [{"measurement": "viability at 0.101 µM", "setting": "[1]; [9]", "value": 101, "unit": "%"}, {"measurement": "viability at 0.318 µM", "setting": "[1]; [10]", "value": 104, "unit": "%"}, {"measurement": "viability at 1 µM", "setting": "[1]; [11]", "value": 107, "unit": "%"}, {"measurement": "viability at 3 µM", "setting": "[1]; [12]", "value": 105, "unit": "%"}, {"measurement": "viability at 10 µM", "setting": "[1]; [13]", "value": 102, "unit": "%"}, {"measurement": "viability at 32 µM", "setting": "[1]; [14]", "value": 31, "unit": "%"}, {"measurement": "viability at 100 µM", "setting": "[1]; [15]", "value": 0, "unit": "%"}, {"measurement": "viability at 316 µM", "setting": "[1]; [16]", "value": 0, "unit": "%"}, {"measurement": "viability at 1000 µM", "setting": "[1]; [17]", "value": 0, "unit": "%"}, {"measurement": "IC50", "setting": "[1]; Table 6.1", "value": 26.5, "unit": "µM"}, {"measurement": "viability at 0.101 µM", "setting": "[2]; [9]", "value": 104, "unit": "%"}, {"measurement": "viability at 0.318 µM", "setting": "[2]; [10]", "value": 103, "unit": "%"}, {"measurement": "viability at 1 µM", "setting": "[2]; [11]", "value": 104, "unit": "%"}, {"measurement": "viability at 3 µM", "setting": "[2]; [12]", "value": 104, "unit": "%"}, {"measurement": "viability at 10 µM", "setting": "[2]; [13]", "value": 105, "unit": "%"}, {"measurement": "viability at 32 µM", "setting": "[2]; [14]", "value": 25, "unit": "%"}, {"measurement": "viability at 100 µM", "setting": "[2]; [15]", "value": 0, "unit": "%"}, {"measurement": "viability at 316 µM", "setting": "[2]; [16]", "value": 0, "unit": "%"}, {"measurement": "viability at 1000 µM", "setting": "[2]; [17]", "value": 0, "unit": "%"}, {"measurement": "IC50", "setting": "[2]; Table 4.1", "value": 28.1, "unit": "µM"}, {"measurement": "viability at 0.101 µM", "setting": "[3]; [9]", "value": 107, "unit": "%"}, {"measurement": "viability at 0.318 µM", "setting": "[3]; [10]", "value": 103, "unit": "%"}, {"measurement": "viability at 1 µM", "setting": "[3]; 1 μM, Table 10.1, read-out: Cell survival at given concentration", "value": 110, "unit": "%"}, {"measurement": "viability at 3 µM", "setting": "[3]; 3 μM, Table 10.1, read-out: Cell survival at given concentration", "value": 103, "unit": "%"}, {"measurement": "viability at 10 µM", "setting": "[3]; 10 μM, Table 10.1, read-out: Cell survival at given concentration", "value": 109, "unit": "%"}, {"measurement": "viability at 32 µM", "setting": "[3]; 32 μM, Table 10.1, read-out: Cell survival at given concentration", "value": 111, "unit": "%"}, {"measurement": "viability at 100 µM", "setting": "[3]; 100 μM, Table 10.1, read-out: Cell survival at given concentration", "value": 108, "unit": "%"}, {"measurement": "viability at 316 µM", "setting": "[3]; [16]", "value": 107, "unit": "%"}, {"measurement": "viability at 1000 µM", "setting": "[3]; [17]", "value": 81, "unit": "%"}, {"measurement": "viability at 0.101 µM", "setting": "[4]; 101 nM", "value": 103, "unit": "%"}, {"measurement": "viability at 0.318 µM", "setting": "[4]; 318 nM", "value": 99, "unit": "%"}, {"measurement": "viability at 1 µM", "setting": "[4]; 1 μM", "value": 103, "unit": "%"}, {"measurement": "viability at 3 µM", "setting": "[4]; 3 μM", "value": 100, "unit": "%"}, {"measurement": "viability at 10 µM", "setting": "[4]; 10 μM", "value": 105, "unit": "%"}, {"measurement": "viability at 32 µM", "setting": "[4]; 32 μM", "value": 101, "unit": "%"}, {"measurement": "viability at 100 µM", "setting": "[4]; 100 μM", "value": 102, "unit": "%"}, {"measurement": "viability at 316 µM", "setting": "[4]; 316 μM", "value": 101, "unit": "%"}, {"measurement": "viability at 1000 µM", "setting": "[4]; 1000 μM", "value": 88, "unit": "%"}, {"measurement": "viability at 0.101 µM", "setting": "[5]; [9]", "value": 105, "unit": "%"}, {"measurement": "viability at 0.318 µM", "setting": "[5]; [10]", "value": 95, "unit": "%"}, {"measurement": "viability at 1 µM", "setting": "[5]; [11]", "value": 104, "unit": "%"}, {"measurement": "viability at 3 µM", "setting": "[5]; [12]", "value": 100, "unit": "%"}, {"measurement": "viability at 10 µM", "setting": "[5]; [13]", "value": 99, "unit": "%"}, {"measurement": "viability at 32 µM", "setting": "[5]; [14]", "value": 103, "unit": "%"}, {"measurement": "viability at 100 µM", "setting": "[5]; [15]", "value": 94, "unit": "%"}, {"measurement": "viability at 316 µM", "setting": "[5]; [16]", "value": 99, "unit": "%"}, {"measurement": "viability at 1000 µM", "setting": "[5]; [17]", "value": 87, "unit": "%"}, {"measurement": "IC50", "setting": "[5]; Table 5.1", "value": "> 1000", "unit": "µM"}, {"measurement": "viability at 0.101 µM", "setting": "[6]; [9]", "value": 102, "unit": "%"}, {"measurement": "viability at 0.318 µM", "setting": "[6]; [10]", "value": 100, "unit": "%"}, {"measurement": "viability at 1 µM", "setting": "[6]; [11]", "value": 102, "unit": "%"}, {"measurement": "viability at 3 µM", "setting": "[6]; [12]", "value": 102, "unit": "%"}, {"measurement": "viability at 10 µM", "setting": "[6]; [13]", "value": 100, "unit": "%"}, {"measurement": "viability at 32 µM", "setting": "[6]; [14]", "value": 96, "unit": "%"}, {"measurement": "viability at 100 µM", "setting": "[6]; [15]", "value": 87, "unit": "%"}, {"measurement": "viability at 316 µM", "setting": "[6]; [16]", "value": 87, "unit": "%"}, {"measurement": "viability at 1000 µM", "setting": "[6]; [17]", "value": 78, "unit": "%"}, {"measurement": "IC50", "setting": "[6]; Table 9.1", "value": "> 1000", "unit": "µM"}, {"measurement": "viability at 0.101 µM", "setting": "[7]; T-24, 101 nM, 72 h, read-out: Cell survival at given concentration", "value": 101, "unit": "%"}, {"measurement": "viability at 0.318 µM", "setting": "[7]; T-24, 318 nM, 72 h, read-out: Cell survival at given concentration", "value": 98, "unit": "%"}, {"measurement": "viability at 1 µM", "setting": "[7]; T-24, 1 μM, 72 h, read-out: Cell survival at given concentration", "value": 106, "unit": "%"}, {"measurement": "viability at 3 µM", "setting": "[7]; T-24, 3 μM, 72 h, read-out: Cell survival at given concentration", "value": 102, "unit": "%"}, {"measurement": "viability at 10 µM", "setting": "[7]; T-24, 10 μM, 72 h, read-out: Cell survival at given concentration", "value": 96, "unit": "%"}, {"measurement": "viability at 32 µM", "setting": "[7]; T-24, 32 μM, 72 h, read-out: Cell survival at given concentration", "value": 9, "unit": "%"}, {"measurement": "viability at 100 µM", "setting": "[7]; T-24, 100 μM, 72 h, read-out: Cell survival at given concentration", "value": 0, "unit": "%"}, {"measurement": "viability at 316 µM", "setting": "[7]; T-24, 316 μM, 72 h, read-out: Cell survival at given concentration", "value": 0, "unit": "%"}, {"measurement": "viability at 1000 µM", "setting": "[7]; T-24, 1000 μM, 72 h, read-out: Cell survival at given concentration", "value": 0, "unit": "%"}, {"measurement": "IC50", "setting": "[7]; T-24, 72 h, Table 3.1, read-out: 1050", "value": 19.1, "unit": "µM"}, {"measurement": "viability at 0.101 µM", "setting": "[8]; [9]", "value": 100, "unit": "%"}, {"measurement": "viability at 0.318 µM", "setting": "[8]; [10]", "value": 100, "unit": "%"}, {"measurement": "viability at 1 µM", "setting": "[8]; [11]", "value": 99, "unit": "%"}, {"measurement": "viability at 3 µM", "setting": "[8]; [12]", "value": 104, "unit": "%"}, {"measurement": "viability at 10 µM", "setting": "[8]; [13]", "value": 101, "unit": "%"}, {"measurement": "viability at 32 µM", "setting": "[8]; [14]", "value": 99, "unit": "%"}, {"measurement": "viability at 100 µM", "setting": "[8]; [15]", "value": 99, "unit": "%"}, {"measurement": "viability at 316 µM", "setting": "[8]; [16]", "value": 98, "unit": "%"}, {"measurement": "viability at 1000 µM", "setting": "[8]; [17]", "value": 79, "unit": "%"}, {"measurement": "IC50", "setting": "[8]; Table 7.1", "value": "> 1000", "unit": "µM"}]}
